Experimental findings from patent publication US6734292B1, “Pseudoerythromycin derivatives” (The Kitasato Institute, priority 2002, dated 2004) are described below.

“And” between values parts separate entries of the source, which are not always exact repeats. Equal entries are not always repeated.

In data set [1] the test system is bleomycin-induced pulmonary fibrosis. Nature of the data set: suppressive effect against bleomycin-induced pulmonary fibrosis (hydroxyproline levels in tissue). Format: in vivo, mice. Particulars: for Hydroxyproline levels in tissue, Assay result / Hydroxyproline levels in tissue, Weight conversion: day-28, individual mice.
Data set [2] concerns influenza virus-induced pneumonia. Nature of the data set: suppressive effect against pneumonia caused by influenza viral infection (mice influenza pneumonia model). Format: in vivo. As for the experimental part:
Next, the suppressive effect of the compound EM703 against pneumonia caused by influenza viral infection was examined.
Sample was dissolved in physiological saline containing 1% DMSO and amount corresponding to oral dosage of the small administration for long-term therapy was administered from day-1 to day-6 of the infection to mice influenza pneumonia model (0.3 mg and 0.03 mg/mice), once a day, intraperitoneally. Results were compared with control group which was given only solvent.
In this system, mice developed pneumonia and almost died about 20 days after infection. […] This indicates suppressive effect against pneumonia and result to cure pneumonia.

The next data set has as its system THP-1 cells. Nature of the data set: enhancing effect for differentiation-induction from human monocyte to macrophage (THP-1/Mφ system, MTT readout). Set-up: key: ++: enhanced 100% or more; +: enhanced 50-100%; ±: enhanced 25-50%; −: no activity; /: expressed cytoxicity; NT: not tested or under assessment. The settings on record: in comparison with enhancing action for differentiation-induction of EM 100 μM. The class given is cell-based. As for the experimental part: In order to confirm enhancing effect for differentiation-induction of the compounds of the present invention, the enhancing effect for differentiation-induction from human monocyte to macrophage was assayed. Method is performed as follows. THP-1 cells were collected from cultured liquid by centrifugation, adjusted the concentration to 2×10^5 cells/ml using medium (RPMI 1640) and distributed into the 48-well plate at 500 μl/well. PMA solution 10 μl and sample solution 5 μl were added in each well, stirred with mild shaking and incubated at 37° C. for 72-96 hours under 5% CO2. Further MTT 0.5 mg/ml solution was added at 300 μl/well, and incubated at 37° C. for 3 hours under 5% CO2. Supernatant solution was suctioned using the injection tube, added DMSO 500 μl using automatic continuous injector to dissolve formazan completely and transferred each 100 μl to the 96-well plate. The optical absorption was measured using the plate-reader.

Where [3] appears, read: BLM + EM703 group: BLM 100 mg/kg tail vein day-0, EM703 50 mg/kg/day orally for 17 days.
Setting [4] is: EM703 group (no BLM), 50 mg/kg/day orally, 50 mg/kg/day.

`CC[C@H]1O[C@]2(O)O[C@H]([C@@H](C)C3O[C@@](C)(C[C@@H]3C)[C@H](O[C@@H]3OC(C)CC(NC)C3O)[C@@H](C)[C@H](O[C@H]3CC(C)(OC)[C@@H](O)C(C)O3)[C@H]2C)[C@]1(C)O` (some centres unmarked) [EM703, de(3′-N-methyl)-8,9-anhydro-pseudoerythromycin A 6,9-hemiketal]: in data set [1] (setting [3]), the “Hydroxyproline levels in tissue, Assay result” value was 583 µmol/L and 495 µmol/L and 437 µmol/L and 314 µmol/L; the “Hydroxyproline levels in tissue, Weight conversion” value was 5.2 µmol/g and 4.5 µmol/g and 4.4 µmol/g and 2.9 µmol/g. Moreover, the “Hydroxyproline level, an index for lung injury, BLM+EM703 group versus BLM administered group” value in data set [1] (EM703 50 mg/kg/day orally, BLM 100 mg/kg) was “reduced”. In data set [1] (setting [4]), the “Hydroxyproline levels in tissue, Assay result” value was 552 µmol/L and 489 µmol/L and 591 µmol/L; the “Hydroxyproline levels in tissue, Weight conversion” value was 5.0 µmol/g and 4.6 µmol/g and 5.4 µmol/g. The survival of mice in data set [2] (EM703 0.3 mg/mice intraperitoneally once a day, day-1 to day-6 of infection, control mice almost died about 20 days after infection, FIG. 2) was determined as 40%. The body weight entry in data set [2] (administration of EM703 intraperitoneally, control showed significant decrease of body weight, FIG. 3) is “increase body weight from day-10”. In addition, in data set [2] (mice influenza pneumonia model, 0.3 mg/mice), the “suppressive effect against influenza virus-induced pneumonia” value is on record as “cured pneumonia”. In addition, in the data set on THP-1 cells, the “activities in THP-1/Mφ system, Treated conc. 0.3 μM” value is “+ (enhanced 50-100%)”; the “activities in THP-1/Mφ system, Treated conc. 1 μM” value is listed as “+ (enhanced 50-100%)”; the “activities in THP-1/Mφ system, Treated conc. 3 μM” value is “+ (enhanced 50-100%)”; the “activities in THP-1/Mφ system, Treated conc. 10 μM” value is reported as “+ (enhanced 50-100%)”.

On to `CC[C@H]1O[C@]2(O)O[C@H]([C@@H](C)C3O[C@@](C)(C[C@@H]3C)[C@H](O[C@@H]3OC(C)CC(N4CCCCCC4)C3O)[C@@H](C)[C@H](O[C@H]3CC(C)(OC)[C@@H](O)C(C)O3)[C@H]2C)[C@]1(C)O` (some centres unmarked) [EM748, de(3′-dimethylamino)-3′-[hexahydro-1(1H)-azepinyl]-8,9-anhydro-pseudoerythromycin A 6,9-hemiketal], for which the melting point lay within 120 to 123 °C. Besides, in the data set with THP-1 cells, the “activities in THP-1/Mφ system, Treated conc. 0.3 μM” value is “−”; the “activities in THP-1/Mφ system, Treated conc. 1 μM” value is given as “± (enhanced 25-50%)”; the “activities in THP-1/Mφ system, Treated conc. 3 μM” value is “++ (enhanced 100% or more)”; the “activities in THP-1/Mφ system, Treated conc. 10 μM” value is “++ (enhanced 100% or more)”.
